Data from patent US10617662B2, “Autophagy activation-induced compound for improving skin inflammation for aging” (INCOSPHARM CORPORATION, priority 2017, dated 2020).

Legend:
Assay type in all cases: cell-based, human
[1] = system: Tbet (T-box transcription factor); test: Expression of psoriasis-related transcription factor Tbet in induced inflammatory condition; conditions: IL-17A/TNFα- or IL-17A/IFNγ-induced inflammatory condition
Experimental: [The source words this procedure for another target and says it was used here with some conditions changed.] (§1) A psoriasis-related genes were selected from the cDNA array result in which Compound 8 of the present invention was treated in HaCaT cells. In order to analyze whether Compound 8 has an effect on psoriasis alleviation, RT-PCR analysis for IL-36′ (interleukin 36 gamma), KLK7 (Kallikrein-related peptidase 7), OASL (2′-5′-Oligoadenylate Synthetase Like) and ALOX12B (Arachidonate 12-lipoxygenase, 12R type) which are very closely related to psoriasis was carried out. Further, KRT16 (Keratin 16), KRT6 (Keratin 6) and KRT1 (Keratin 1), known as psoriasis-related proliferation, differentiation markers were confirmed by a western blot analysis. As the specific experimental method, HEKa cells (Human Epidermal keratinocytes, adult), human-derived epidermal keratinocytes were seeded on a 24 well plate at a density of 1×10^5 cells, and cultured in an EpiLife medium (1× Human keratinocyte Growth supplement, 1× antibiotics) in an incubator under 37° C. and 5% CO2 for 24 hours. […]

[2] = system: Foxp3 (forkhead box P3); test: Expression of psoriasis-related transcription factor Foxp3 in induced inflammatory condition; conditions: IL-17A/TNFα- or IL-17A/IFNγ-induced inflammatory condition
Experimental: [The source words this procedure for another target and says it was used here with some conditions changed.] as §1

[3] = system: IL-8 (interleukin-8); test: Cytokine gene expression, IL-8, IL-17A/TNF-α condition; conditions: FIG. 9

CCCCCCCCCCCCCCCC(=O)NCCCC[C@H](NC(=O)[C@H](CCCCN(CC(=O)O)CC(=O)O)N(CC(=O)O)CC(=O)O)C(=O)O [Compound 8]
reduced: expression level of Tbet [1] | expression level of Foxp3 [2] | expression level of IL-8 [3]
